Experimental data as given in ChEMBL document CHEMBL5357082, “Identification and Optimization of Small Molecule Pyrazolopyrimidine TLR7 Agonists for Applications in Immuno-oncology” (ACS Med Chem Lett, 2024).

How the values were obtained:
[1] = AUClast in nontumor bearing Balb/C mouse at 0.5 mg/kg; format: ADME, organism-based; set-up: dose 0.5 mg/kg; settings: in vivo
[2] = molecular target: T1, Toll-like receptor 8 (Homo sapiens, UniProt Q9NR97); assay: Agonist activity at human TLR8
T1 sequence (Q9NR97 whole entry): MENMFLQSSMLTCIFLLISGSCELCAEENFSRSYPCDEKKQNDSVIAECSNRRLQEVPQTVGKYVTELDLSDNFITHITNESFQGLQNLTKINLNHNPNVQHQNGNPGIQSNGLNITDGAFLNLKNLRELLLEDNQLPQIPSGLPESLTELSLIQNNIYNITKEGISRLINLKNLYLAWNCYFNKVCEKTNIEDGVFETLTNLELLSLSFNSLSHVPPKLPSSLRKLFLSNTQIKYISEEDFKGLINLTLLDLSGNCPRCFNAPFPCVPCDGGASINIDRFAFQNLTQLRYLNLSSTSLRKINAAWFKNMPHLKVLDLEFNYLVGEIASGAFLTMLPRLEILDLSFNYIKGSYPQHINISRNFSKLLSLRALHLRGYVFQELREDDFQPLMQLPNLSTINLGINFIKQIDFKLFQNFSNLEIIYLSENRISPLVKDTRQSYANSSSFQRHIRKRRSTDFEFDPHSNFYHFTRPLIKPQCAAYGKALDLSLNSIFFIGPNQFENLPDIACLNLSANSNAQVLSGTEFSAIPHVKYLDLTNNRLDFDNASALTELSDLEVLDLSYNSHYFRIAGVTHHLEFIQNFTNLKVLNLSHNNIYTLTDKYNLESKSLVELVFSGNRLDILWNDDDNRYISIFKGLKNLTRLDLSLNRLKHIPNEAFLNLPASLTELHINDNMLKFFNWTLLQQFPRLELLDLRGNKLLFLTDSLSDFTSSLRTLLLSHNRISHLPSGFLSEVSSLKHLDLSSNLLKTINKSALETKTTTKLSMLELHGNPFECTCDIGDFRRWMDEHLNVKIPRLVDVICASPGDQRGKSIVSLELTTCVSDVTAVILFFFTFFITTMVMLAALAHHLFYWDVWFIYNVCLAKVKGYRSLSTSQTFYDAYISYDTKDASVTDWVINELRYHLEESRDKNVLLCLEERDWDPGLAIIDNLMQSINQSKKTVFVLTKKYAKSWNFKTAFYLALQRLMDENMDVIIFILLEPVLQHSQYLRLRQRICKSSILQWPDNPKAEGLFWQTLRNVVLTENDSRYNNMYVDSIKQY

[3] = Clearance in nontumor bearing Balb/C mouse at 0.5 mg/kg; format: ADME, organism-based; settings: in vivo
[4] = Metabolic stability in mouse liver microsomes assessed as compound remaining at 0.5 uM incubated for 10 mins in presence of NADPH by UV absorbance based assay; format: ADME, Microsome; settings: read-out: Stability
[5] = Half life in nontumor bearing Balb/C mouse at 0.5 mg/kg; format: ADME, organism-based; settings: in vivo
[6] = Metabolic stability in human liver microsomes assessed as compound remaining at 0.5 uM incubated for 10 mins in presence of NADPH by UV absorbance based assay; format: ADME, Microsome; settings: read-out: Stability
[7] = Drug concentration in nontumor bearing Balb/C mouse at 0.5 mg/kg measured after 5 mins; format: ADME, organism-based; settings: in vivo, read-out: Drug uptake

## CCC[C@@H](CCO)Nc1nc(N)nc2cnn(Cc3ccc(CNC4CCOCC4)cc3OC)c12
[1]
  AUC(0-t): 0.111 µM·h
[2]
  EC50: > 5 µM
[3]
  clearance: 149 mL/min/kg
[4]
  remaining at 10 min, 0.5 µM: 81%
[5]
  half-life: 5.6 h
[6]
  remaining at 10 min, 0.5 µM: 75%
[7]
  concentration at 5 min: 66 nM
